The values that follow come from publication PMC9780108, “An intrinsically disordered antimicrobial peptide dendrimer from stereorandomized virtual screening” (Cell Reports. Physical Science, 2022).

Assay [1] relates to HEK293 cell line. The assay is classed as cell-based. The settings on record: 48 h. The procedure:
HEK 293 cell line were cultured and maintained in DMEM (Dulbeccos modified Eagle
medium, Sigma Aldrich) supplemented with 10% FBS (Sigma Aldrich) and 1%
penicillin/streptomycin. Cells were incubated in a humidified incubator at 37°C in the presence
HEK 293 cell were seeded into 96 well plates at the density of 2 × 10^3 cells/well and incubated
in DMEM containing 10% FBS for 10-14 hours at 37°C in the presence of 5% CO2. The next
day, stock solution of compounds were prepared at concentration of 2 mg/mL in DMEM
containing 10% FBS. 1/2 or 1/3 serial dilution of the peptide dendrimers from 2 mg/mL or 200
µg/mL were performed in DMEM containing 10% FBS. The medium was removed from cell
culture and replaced with the compounds at different concentration after washing with PBS.
The cells were incubated in DMEM containing 10% FBS at 37°C in the presence of 5% CO 2.
Negative control was untreated cell culture without compounds and blank control was wells
without cell but only medium. After 48 hours, a final concentration of 10% AlamarBlue®
(Thermo Fisher Scientific, Reinach, CH) was added to each well . The cells were incubated for
3-5 hours at 37°C with 5% CO 2. The fluorescence was then measured on a Tecan Infinite
M1000 Pro plate reader at λex = 560 nm and λem = 590 nm. The value was normalized
according to the untreated cells.

The subject of assay [2] is E. coli W3110. The settings on record: for MIC at pH 5.0, E. coli W3110: W3110, pH 5; for MIC at pH 7.4, E. coli W3110: W3110, pH 7.4; for MIC at pH 8.0, E. coli W3110: W3110, pH 8.
For assay [3], the system named is A. baumannii ATCC 19606. Conditions: for MIC at pH 5.0, A. baumannii ATCC 19606: ATCC 19606, pH 5; for MIC at pH 7.4, A. baumannii ATCC 19606: ATCC 19606, pH 7.4; for MIC at pH 8.0, A. baumannii ATCC 19606: ATCC 19606, pH 8.
Assay [4] has as its system P. aeruginosa PAO1. The settings on record: for MIC at pH 5.0, P. aeruginosa PAO1: PAO1, pH 5; for MIC at pH 7.4, P. aeruginosa PAO1: PAO1, pH 7.4; for MIC at pH 8.0, P. aeruginosa PAO1: PAO1, pH 8.
Assay [5] deals with K. pneumoniae NCTC 418. The settings on record: for MIC at pH 5.0, K. pneumoniae NCTC 418: NCTC 418, pH 5; for MIC at pH 7.4, K. pneumoniae NCTC 418: NCTC 418, pH 7.4; for MIC at pH 8.0, K. pneumoniae NCTC 418: NCTC 418, pH 8.
Assay [6] has as its system S aureus COL (methicillin-resistant Staphylococcus aureus). Conditions: for MIC at pH 5.0, S aureus COL: COL (methicillin-resistant, pH 5); for MIC at pH 7.4, S aureus COL: COL (methicillin-resistant, pH 7.4); for MIC at pH 8.0, S aureus COL: COL (methicillin-resistant, pH 8).

Structures are written as SMILES. In brackets after ≈: the same amount, converted by molar mass. Positions of bridges follow the written chain, without caps; N, C: chain ends. Non-standard residues stand in square brackets, D forms with d. Residues, ends and D or L forms follow the SMILES beside them. Groups on a side chain read outwards from the residue. Chains are numbered I, II in the order given. *: point of attachment. X4 = CC(C)C[C@@H](NC(=O)CCCCCN)C(=O)NCCCC[C@@H](NC(=O)[C@@H](CC(C)C)NC(=O)CCCCCN)C(=O)*; Ahx = NCCCCCC(=O)O Where only a bound is given, the exact number is not on record here.

Take `CC(C)C[C@@H](NC(=O)[C@@H](CC(C)C)NC(=O)[C@@H](CC(C)C)NC(=O)[C@@H](CCCCNC(=O)[C@@H](CC(C)C)NC(=O)[C@@H](CC(C)C)NC(=O)[C@@H](CCCCNC(=O)[C@@H](CCCCN)NC(=O)[C@@H](CC(C)C)NC(=O)[C@@H](CCCCNC(=O)[C@@H](CC(C)C)NC(=O)CCCCCN)NC(=O)[C@@H](CC(C)C)NC(=O)CCCCCN)NC(=O)[C@@H](CCCCN)NC(=O)[C@@H](CC(C)C)NC(=O)[C@@H](CCCCNC(=O)[C@@H](CC(C)C)NC(=O)CCCCCN)NC(=O)[C@@H](CC(C)C)NC(=O)CCCCCN)NC(=O)[C@@H](CC(C)C)NC(=O)[C@@H](CC(C)C)NC(=O)[C@@H](CCCCNC(=O)[C@@H](CCCCN)NC(=O)[C@@H](CC(C)C)NC(=O)[C@@H](CCCCNC(=O)[C@@H](CC(C)C)NC(=O)CCCCCN)NC(=O)[C@@H](CC(C)C)NC(=O)CCCCCN)NC(=O)[C@@H](CCCCN)NC(=O)[C@@H](CC(C)C)NC(=O)[C@@H](CCCCNC(=O)[C@@H](CC(C)C)NC(=O)CCCCCN)NC(=O)[C@@H](CC(C)C)NC(=O)CCCCCN)C(N)=O` [D-aX18] (I: H-[Ahx][dL][dK]([dL-Ahx])[dL][dK][dK]([dK-dL-X4])[dL][dL][dK][dL][dL][dL]-NH2 / II: H-[Ahx][dL][dK]([dL-Ahx])[dL][dK][dK]([dK-dL-X4])[dL][dL]; amide I:9-II:C): the “IC50 HEK293” value in assay [1] came to 21 ± 2 µg/mL (≈ 4.69 µM). For the same compound, in assay [2], the “MIC at pH 5.0, E. coli W3110” value turned out to be 32 μg/mL; the “MIC at pH 7.4, E. coli W3110” value is above 64 μg/mL; the “MIC at pH 8.0, E. coli W3110” value amounted to 32 μg/mL. In assay [3], the “MIC at pH 5.0, A. baumannii ATCC 19606” value is 32 μg/mL; the minimal inhibitory concentration (MIC) at pH 7.4, A. baumannii ATCC 19606 is recorded as above 64 μg/mL; the “MIC at pH 8.0, A. baumannii ATCC 19606” value was found to be 16 μg/mL. Besides, in assay [4], the “MIC at pH 5.0, P. aeruginosa PAO1” value was 64/>64/64 μg/mL; the “MIC at pH 7.4, P. aeruginosa PAO1” value is 64/>64/64 μg/mL; the “MIC at pH 8.0, P. aeruginosa PAO1” value is given as 64/>64/64 μg/mL. Further, in assay [5], the “MIC at pH 5.0, K. pneumoniae NCTC 418” value is given as >64/>64/>64 μg/mL; the “MIC at pH 7.4, K. pneumoniae NCTC 418” value is recorded as >64/>64/>64 μg/mL; the “MIC at pH 8.0, K. pneumoniae NCTC 418” value was >64/>64/>64 μg/mL. Moreover, in assay [6], the “MIC at pH 5.0, S aureus COL” value was above 64 μg/mL; the “MIC at pH 7.4, S aureus COL” value is reported as above 64 μg/mL; the “MIC at pH 8.0, S aureus COL” value is given as 16 μg/mL.

Regarding `CC(C)C[C@H](NC(=O)[C@H](CC(C)C)NC(=O)[C@H](CCCCN)NC(=O)[C@H](CCCCNC(=O)[C@H](CC(C)C)NC(=O)[C@H](CC(C)C)NC(=O)[C@H](CCCCNC(=O)[C@H](CC(C)C)NC(=O)[C@H](CCCCN)NC(=O)[C@H](CCCCNC(=O)[C@H](CC(C)C)NC(=O)[C@@H](N)CCCCN)NC(=O)[C@H](CC(C)C)NC(=O)[C@@H](N)CCCCN)NC(=O)[C@H](CC(C)C)NC(=O)[C@H](CCCCN)NC(=O)[C@H](CCCCNC(=O)[C@H](CC(C)C)NC(=O)[C@@H](N)CCCCN)NC(=O)[C@H](CC(C)C)NC(=O)[C@@H](N)CCCCN)NC(=O)[C@H](CC(C)C)NC(=O)[C@H](CC(C)C)NC(=O)[C@H](CCCCNC(=O)[C@H](CC(C)C)NC(=O)[C@H](CCCCN)NC(=O)[C@H](CCCCNC(=O)[C@H](CC(C)C)NC(=O)[C@@H](N)CCCCN)NC(=O)[C@H](CC(C)C)NC(=O)[C@@H](N)CCCCN)NC(=O)[C@H](CC(C)C)NC(=O)[C@H](CCCCN)NC(=O)[C@H](CCCCNC(=O)[C@H](CC(C)C)NC(=O)[C@@H](N)CCCCN)NC(=O)[C@H](CC(C)C)NC(=O)[C@@H](N)CCCCN)C(N)=O` [L-T25, reference compound] (HELM PEPTIDE1{K.L.K.K.L.K.L.L.K.K.L.L.[am]}|PEPTIDE2{K.L}|PEPTIDE3{K.L.K.K.L.K.L.L}|PEPTIDE4{K.L}|PEPTIDE5{K.L.K.K.L}|PEPTIDE6{K.L}|PEPTIDE7{K.L.K.K.L}|PEPTIDE8{K.L}$PEPTIDE1,PEPTIDE2,3:R3-2:R2|PEPTIDE3,PEPTIDE4,3:R3-2:R2|PEPTIDE5,PEPTIDE6,3:R3-2:R2|PEPTIDE7,PEPTIDE8,3:R3-2:R2|PEPTIDE1,PEPTIDE7,6:R3-5:R2|PEPTIDE1,PEPTIDE3,9:R3-8:R2|PEPTIDE3,PEPTIDE5,6:R3-5:R2$$$V2.0), the “IC50 HEK293” value in assay [1] amounted to 92 ± 3 µg/mL (≈ 19.9 µM). Moreover, in assay [2], the “MIC at pH 5.0, E. coli W3110” value turned out to be 32 μg/mL; the “MIC at pH 7.4, E. coli W3110” value was 8 μg/mL; the “MIC at pH 8.0, E. coli W3110” value was 8 μg/mL. In addition, in assay [3], the “MIC at pH 5.0, A. baumannii ATCC 19606” value was 16 μg/mL; the “MIC at pH 7.4, A. baumannii ATCC 19606” value is 4 μg/mL; the minimal inhibitory concentration (MIC) at pH 8.0, A. baumannii ATCC 19606 was 4 μg/mL. Also, in assay [4], the “MIC at pH 5.0, P. aeruginosa PAO1” value is given as 32 μg/mL; the minimum inhibitory concentration (MIC) at pH 7.4, P. aeruginosa PAO1 was found to be 8 μg/mL; the “MIC at pH 8.0, P. aeruginosa PAO1” value stood at 8 μg/mL. In addition, in assay [5], the “MIC at pH 5.0, K. pneumoniae NCTC 418” value is above 64 μg/mL; the minimal inhibitory concentration (MIC) at pH 7.4, K. pneumoniae NCTC 418 amounted to 32 μg/mL; the “MIC at pH 8.0, K. pneumoniae NCTC 418” value was determined as 16 μg/mL. Also, in assay [6], the “MIC at pH 5.0, S aureus COL” value was above 64 μg/mL; the minimal inhibitory concentration (MIC) at pH 7.4, S aureus COL is reported as above 64 μg/mL; the “MIC at pH 8.0, S aureus COL” value was determined as 32 μg/mL.

The term MIC denotes the lowest concentration found to suppress growth. Low values mean greater potency, high ones weaker potency.
